Data taken from patent publication US5541174A, “Analgesic method” (priority 1995, dated 1996).
“And” between values parts separate entries of the source, which are not always exact repeats. Equal values may be shown once.

What was measured:
[1] = system: acetic acid-induced writhing mouse pain model; test: Measurement of time of peak activity in the acetic acid-induced writhing mouse pain model; type: in vivo; conditions: for duration of analgesic effect: Table VII
Protocol: Groups of 10 ICR male mice (Taisho Pharmaceutical Co. Research Center) were used to study each dose of every compound. […] Number of writhes were counted for each mouse during a period of 10 to 20 min after acetic acid injection. Inhibitory percent was calculated by comparison with the number of writhes in the non-treated control, vehicle-treated, and acetic acid-injected group. The ED50 value and 95% confidence limits were calculated from the inhibitory percent by the method of Litchfield and Wilcoxon.
(§1) All drugs were suspended with 5% gum arabic in saline solution or wetted with enough propylene glycol to give a final concentration of 4% propylene glycol and the wetted solid suspended in 1.4% polyvinyl alcohol in saline.

[2] = system: acetic acid-induced writhing mouse pain model; test: Naloxone reversal of analgesia in the acetic acid-induced writhing mouse pain model; type: in vivo; conditions: for reduction of induced analgesia by Naloxone: Table VIII; for ED50: p.o.
Protocol: (§2) Groups of 10 ICR male mice (Taisho Pharmaceutical Co. Research Center) were used to study each dose of every compound. Ligands or complexes were administered orally or subcutaneously in 0.1 ml of vehicle per 10 g of body weight 30 minutes before the intrapertioneal injection of 0.1 ml of 0.7% acetic acid solution per 10 g of body weight. Number of writhes were counted for each mouse during a period of 10 to 20 min after acetic acid injection. Inhibitory percent was calculated by comparison with the number of writhes in the non-treated control, vehicle-treated, and acetic acid-injected group. The ED50 value and 95% confidence limits were calculated from the inhibitory percent by the method of Litchfield and Wilcoxon.
as §1
NaloxoneHCL (3 umol/kg. i.v., in saline, Endo Lab.) was administered 5
min. before acetic acid injection.

[3] = system: acetic acid induced writhing in mice; test: Acetic acid-induced writhing test; type: in vivo, ICR male mice
Protocol: 1. Acetic acid-induced writhing test as described in Koster et al., "Acetic Acid for Analgesic Screening", Fed. Proc. 18, 412 (1959), incorporated by reference herein; and
as §2

[4] = system: adjuvant-induced arthritic pain in rats; test: Adjuvant-induced arthritic pain; type: in vivo, male Sprague-Dawley rats
Excerpt: 2. Adjuvant-induced arthritic pain as described in:
S. KUZNA, et al., Measurement of Arthritic Pain and Effects of Analgesics in the Adjuvant-Treated Rat, Chem. Pharm. Bull. 23, 1184-1191 (1975);
C. A. WINTER, et al., Analgesic Activity of Diflunisal in Rats with Hyperalygesia Induced by Freud's Adjuvant, J. Pharmacol. Exp. Ther. 211, 678-685 (1979; and
M. E. ROSENTHALE, et al., Adjuvant Arthritis:Immuno-Pathological and Hyperalgesic Features, Fed. Proced. 41, 2577-2582 (1982),
incorporated by reference herein.
Groups of 5-6 male Sprague-Dawley rats (Taisho Pharmaceutical Co. Research Center) weighing 140 to 160 g at the time of Mycobacterium butyricum (adjuvant, Difco Laboratories, Detroit, Mich.) injection were used to study each compound. Rats were injected intradermally at the base of the tail with 0.1 ml of a parafin oil suspension of 0.5 mg of heat-killed mycobacterium. Fifteen to 19 days later, drugs were administered orally or subcutaneously in 0.5 ml of vehicle per 100 g of body weight to rats showing the nociceptive reaction, vocalization following a gentle flexion of the tarsal-tibial joint of the inflamed hind-paw. Vocalization responses were measured every hour for 5 hours. […] The ED50 value and 95% confidence limits were calculated from the positive rate for non-treated controls, vehicle-treated adjuvant arthritic rats, by the method of Litchfield and Wilcoxin.
as §1

[5] = system: acetic acid-induced writhing mouse pain model; test: Comparison/potentiation of analgesic activity with morphine in the acetic acid-induced writhing mouse pain model; type: in vivo
Protocol: as §2

[6] = oral, 5% gum arabic, 0.006 mmol/kg
[7] = oral, 5% gum arabic, 0.013 mmol/kg

CCN(CC)C(=S)[S-].CCN(CC)C(=S)[S-].[Cu+2] [Cu(II)(DDC)2, Bisdiethyldithiocarbamatocopper(II)] showed an Inhibition % ([1]; 555 umol/kg s.c., 30 min) of 29%, an Inhibition % ([1]; 555 umol/kg s.c., 60 min) of 42% and an Inhibition % ([1]; 555 umol/kg s.c., 120 min) of 45%. The Inhibition % ([1]; 555 umol/kg s.c., 180 min) was 29%, the “duration of analgesic effect” value [1] was “prolonged duration of analgesic effect” and the “% Inhibition” value ([2]; 555 umol/kg s.c., with Naloxone HCl 3 umol/kg i.v.) was 29%. The “% Inhibition” value ([2]; 555 umol/kg s.c., without naloxone) was 45% and the “reduction of induced analgesia by Naloxone” value [2] was “reduction”.

For COc1ccc2c(c1)c(CC(=O)[O-])c(C)n2C(=O)c1ccc(Cl)cc1.COc1ccc2c(c1)c(CC(=O)[O-])c(C)n2C(=O)c1ccc(Cl)cc1.COc1ccc2c(c1)c(CC(=O)[O-])c(C)n2C(=O)c1ccc(Cl)cc1.COc1ccc2c(c1)c(CC(=O)[O-])c(C)n2C(=O)c1ccc(Cl)cc1.[Cu+2].[Cu+2] [Cu(II)2 (indomethacin)4], the ED50 ([3]; oral, 5% gum arabic in saline) was 0.012 mmol/kg, the “analgesic effectiveness versus parent ligand” value ([3]; oral, 5% gum arabic in saline) was “more effective than their parent ligands” and the “% Inhibition” value [3, 6] was 33%. For the same molecule, the “% Inhibition” value [3, 7] was 50%, the “% Inhibition” value ([3]; oral, 5% gum arabic, 0.025 mmol/kg) was 73% and the “analgesic effectiveness versus parent ligand” value ([3]; oral, PG-PVA) was “more effective than their parent ligands”. The ED50 ([3]; oral, PG-PVA in saline) was 0.002 mmol/kg, the “% Inhibition” value ([3]; oral, PG-PVA, 0.001 mmol/kg) was 38% and the “% Inhibition” value ([3]; oral, PG-PVA, 0.002 mmol/kg) was 53%. The “% Inhibition” value ([3]; oral, PG-PVA, 0.004 mmol/kg) was 75%, the ED50 ([3]; s.c., PG-PVA in saline) was 0.002 mmol/kg and 0.003 mmol/kg and the “% Inhibition” value ([3]; s.c., PG-PVA, 0.002 mmol/kg) was 34%. The “% Inhibition” value ([3]; s.c., PG-PVA, 0.003 mmol/kg) was 53%, the “% Inhibition” value ([3]; s.c., PG-PVA, 0.006 mmol/kg) was 70% and the ED50 ([4]; oral, 5% gum arabic in saline) was 0.007 mmol/kg. The “% Inhibition” value ([4]; oral, 5% gum arabic, 0.003 mmol/kg) was 27%, the “% Inhibition” value [4, 6] was 47% and the “% Inhibition” value [4, 7] was 70%. The ED50 ([4]; oral, PG-PVA in saline) was 0.002 mmol/kg, the “% Inhibition” value ([4]; oral, PG-PVA, 0.001 mmol/kg) was 20% and the “% Inhibition” value ([4]; oral, PG-PVA, 0.002 mmol/kg) was 40%. The “% Inhibition” value ([4]; oral, PG-PVA, 0.003 mmol/kg) was 87%, the ED50 ([4]; s.c., PG-PVA in saline) was 0.002 mmol/kg and the “% Inhibition” value ([4]; s.c., PG-PVA, 0.001 mmol/kg) was 17%. The “% Inhibition” value ([4]; s.c., PG-PVA, 0.002 mmol/kg) was 43%, the “% Inhibition” value ([4]; s.c., PG-PVA, 0.003 mmol/kg) was 60% and the Inhibition % ([1]; 2 umol/kg p.o., 30 min) was 54%. The Inhibition % ([1]; 2 umol/kg p.o., 60 min) was 49%, the Inhibition % ([1]; 2 umol/kg p.o., 120 min) was 43% and the Inhibition % ([1]; 2 umol/kg p.o., 180 min) was 68%. For the same molecule, the Inhibition % ([1]; 2 umol/kg p.o., 240 min) was 33%, the “duration of analgesic effect” value [1] was “prolonged duration of analgesic effect” and the “% Inhibition” value ([2]; 0.5 umol/kg p.o., with Naloxone HCl 3 umol/kg i.v.) was 19%. The “% Inhibition” value ([2]; 0.5 umol/kg p.o., without naloxone) was 43%, the “% Inhibition” value ([2]; 1 umol/kg p.o., with Naloxone HCl 3 umol/kg i.v.) was 52% and the “% Inhibition” value ([2]; 1 umol/kg p.o., without naloxone) was 62%. The “% Inhibition” value ([2]; 2 umol/kg p.o., with Naloxone HCl 3 umol/kg i.v.) was 69%, the “% Inhibition” value ([2]; 2 umol/kg p.o., without naloxone) was 76% and the “reduction of induced analgesia by Naloxone” value [2] was “reduction”. For the same molecule, the ED50 ([2]; with Naloxone HCl 3 umol/kg i.v.) was 1.1 µmol/kg, the ED50 ([2]; without naloxone) was 0.6 µmol/kg and the “% Inhibition” value ([5]; 0.5 umol/kg, orally) was 21%. The “% Inhibition” value ([5]; 1.0 umol/kg, orally) was 46%, the “% Inhibition” value ([5]; 2.0 umol/kg, orally) was 54% and the “potentiation of opioid analgesia” value ([5]; Table IX) was “potentiation of opioid analgesia”. It also gave an ED50 ([5]; complex alone, orally) of 1.5 µmol/kg.

CCN(CC)C(=S)[S-].[Na+] [NaDDC, sodium diethyldithiocarbamate, reference compound] was tested, and the Inhibition % ([1]; 584 umol/kg s.c., 30 min) was 48%, the Inhibition % ([1]; 584 umol/kg s.c., 60 min) was 53% and the Inhibition % ([1]; 584 umol/kg s.c., 120 min) was 20%. It also gave an Inhibition % ([1]; 584 umol/kg s.c., 180 min) of 18%.
